The target of experiment [1] is T1, NTS1R (Homo sapiens, UniProt P30989). The experiment in a line: Radioligand competition binding with [^3H]UR-MK300 at intact HT-29 colon carcinoma cells. Conditions: [^3H]UR-MK300, intact HT-29 cells, 23 °C; read-out: NTS1R pKi ± SEM (converted). As for the experimental part:
NTS1R binding affinities were determined in a reported competition binding assay[13] using intact hNTS1R-expressing HT-29 colon carcinoma cells and [^3H]UR-MK300 (structure see Figure 1A) as radioligand (competition binding curves shown in Figure S4, Supporting Information).
NTS1R radioligand competition binding experiments with [^3H]UR-MK300 (molar activity: 2.41 TBq/mmol) and the peptides 6–9, 10a, 10b, 13–16, and 18 were performed with intact hNTS1R-expressing human HT-29 colon carcinoma cells at 23 ± 1 °C using a previously reported protocol.[13] […] Cells were seeded one day before the assay, yielding a confluency of at least 90% on the day of the experiment. Total binding data (including total binding in the absence of competitor) were plotted as dpm values against log(concentration competitor) and analyzed by a four-parameter logistic equation (log(inhibitor) vs response–variable slope, GraphPad Prism 5, GraphPad Software, San Diego, CA) to obtain pIC50 values. Individual pIC50 values were converted to pKi values according to the Cheng–Prusoff equation[60] (logarithmic form). To plot average data from individual binding experiments, data were normalized (100% = “top” of the four-parameter logistic fit, 0% = unspecifically bound radioligand).
On the technique in general: Loss of bound radioactivity is the signal in a displacement assay; it reports binding, not function.

Experiment [2] deals with T1, NTS1R. The experiment in a line: Radiochemical association and dissociation kinetics, adherent CHO-hNTS1R cells. The experiment is classed as binding. As for the experimental part:
Binding of both ligands, [^3H]13 and [^3H]18, was studied at adherent and suspended intact CHO-hNTS1R cells, and binding of [^3H]13 was additionally studied using CHO-hNTS1R cell membrane preparations (saturation and competition binding, kinetic studies). Furthermore, saturation binding experiments were performed with both ligands at intact adherent HT-29 cells. All experiments were performed in triplicate except for dissociation experiments performed with suspended cells in 50 mL flacon tubes (performed in duplicate). To reduce radioligand consumption in the aforementioned experiments, [^3H]13 and [^3H]18 were 1:1 diluted with 13 and 18, respectively (for the purpose of easier reading these mixtures are denoted "[^3H]13" and "[^3H]18"in the following). All samples were incubated at 23 ± 1 °C in the dark under gentle shaking (incubation times are outlined below). DPBS1 served as binding buffer throughout. In the case of experiments performed with cell suspensions, CHO-hNTS1R cells were seeded in T75 culture flasks 3–4 days prior to the experiment. On the day of the experiment, cells were detached by trypsinization, suspended in DPBS1 and centrifuged at 200g at rt for 5 min. Cells were resuspended in binding buffer and the cell density was adjusted to 1.5 × 10^5 to 2.5 × 10^5 cells/mL. Samples involving suspended cells or membrane preparations were prepared and incubated in 96-well polypropylene plates (Brand 701330, Wertheim, Germany) or in 50 mL polypropylene falcon tubes (Sarstedt), and the same filtration procedure for separating free radioligand from cell- or membrane bound radioligand was applied for all kind of binding experiments: after completed incubation, cells or cell membranes were collected on GF/C filter mats (0.26 mm; Whatman, Maidstone, U.K.) (pretreated with 0.3% polyethylenimine for 30 min) using an in-house manufactured harvester for 96-well plates (precision engineering workshop of the University of Regensburg, Regensburg, Germany), and the wells of the plate and the cells on the filter mat were immediately washed twice with ice-cold PBS (2 × 200 μL) (note: when samples were incubated in falcon tubes, 200-μL aliquots were transferred to the wells of a 96-well polypropylene plate after the incubation period, immediately followed by the filtration procedure). Filter pieces for each well were punched out and transferred into 1450–401 96-well sample plates (PerkinElmer, Rodgau, Germany), followed by the addition of Rotiscint Routine (Carl Roth, Karlsruhe, Germany) (200 μL). The plates were sealed with transparent sealing tape (Greiner EASYseal, part no. 676001, Greiner Bio-One) and shaken in the dark overnight before measurement of the radioactivity (dpm) using a MicroBeta2 plate counter equipped with six pairs of photomultiplier tubes (PerkinElmer).
For experiments involving adherent cells, CHO-hNTS1R (25,000 cells per well) or HT-29 (35,000 cells per well) cells were seeded one day prior to the experiment in white 96-well plates with clear bottom (VWR 732–3740). On the day of the experiment, the medium was aspirated and the cells (confluency: 70–90%) were washed with PBS (200 μL) followed by covering with DPBS1 (160 μL) and the addition of the ligands as outlined below. After completed incubation, the liquid was aspirated and the wells were washed twice with ice-cold PBS (200 μL) followed by the addition of lysis solution (urea (8 M), acetic acid (3 M) and Triton-X (1%) in water) (25 μL). After shaking for at least 20 min, liquid scintillator (UltimaGold, PerkinElmer) (200 μL) was added and the plates were sealed with a transparent sealing tape (permanent seal for microplates, PerkinElmer, prod. no. 1450–461). The sealed plates were turned upside down several times to achieve complete mixing of scintillator and lysis solution and were kept in the dark for at least 3 h before measurement of the radioactivity (dpm) with the MicroBeta2 plate counter. […]

The structures appear in SMILES notation.

T1 sequence (P30989 whole entry): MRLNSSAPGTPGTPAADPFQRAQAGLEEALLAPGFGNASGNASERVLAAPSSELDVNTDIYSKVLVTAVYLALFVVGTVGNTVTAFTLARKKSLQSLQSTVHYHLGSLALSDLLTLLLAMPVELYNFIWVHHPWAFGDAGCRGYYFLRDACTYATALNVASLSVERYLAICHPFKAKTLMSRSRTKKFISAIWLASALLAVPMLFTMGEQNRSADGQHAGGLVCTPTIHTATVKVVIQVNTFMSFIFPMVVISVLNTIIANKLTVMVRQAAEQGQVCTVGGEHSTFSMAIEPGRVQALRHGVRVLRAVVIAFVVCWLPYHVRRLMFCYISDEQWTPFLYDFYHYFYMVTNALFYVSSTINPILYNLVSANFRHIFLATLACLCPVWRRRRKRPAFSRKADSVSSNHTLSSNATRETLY

In the case of `CCC(=O)NCCCCNC(=O)NC(=N)NCCC[C@H](NC(=O)[C@@H]1CCCN1C(=O)[C@@H](NC(=O)CCc1cn(CCCNC(=O)CCC#Cc2ccc3c(c2)C(C)(C)C2=C4C=C5C6=[N+](CCC5OC4CCN23)c2ccc(S(=O)(=O)[O-])cc2C6(C)C)nn1)C1CCNCC1)C(=O)N[C@@H](CCCNC(=N)N)C(=O)N1CCC[C@H]1C(=O)N[C@H](C(=O)N[C@H](C(=O)N[C@@H](CC(C)C)C(=O)O)[C@@H](C)CC)C(C)(C)c1ccc(O)cc1` (stereo partly drawn) [Compound 18, N^α-(3-(N-(1-(8-Sulfonato-5,5,27,27-tetramethyl-16-oxa-20-aza-12-azoniaheptacyclo[15.11.0.03,15.04,12.06,11.020,28.021,26]octacosa-1(28),2,4(12),6(11),7,9,21(26),22,24-nonaen-24-yl)-5-oxopentyn-5-yl)-1-aminoprop-3-yl-1H-1,2,3-triazol-4-yl)propanoyl)-2-(piperidin-4-yl)-Gly-Pro-N^ω-[(4-(N-propanoyl)aminobutyl)aminocarbonyl]Arg-Arg-Pro-β,β-dimethyl-L-Tyr-Ile-Leu Tris(hydrotrifluoroacetate)], the Ki at NTS1R [1] is 4.07 nM.
For orientation: koff means the first-order rate constant of dissociation. A word on the kon: it is the second-order rate constant of association. For orientation: Kd means the equilibrium constant for the complex coming apart. For the compound `CCC(=O)NCCCCNC(=O)NC(=N)NCCC[C@H](NC(=O)[C@@H]1CCCN1C(=O)[C@@H](NC(=O)CCc1cn(CCCNC(=O)c2ccc(-c3c4ccc(=[N+](C)C)cc-4oc4cc(N(C)C)ccc34)c(C(=O)[O-])c2)nn1)C1CCNCC1)C(=O)N[C@@H](CCCNC(=N)N)C(=O)N1CCC[C@H]1C(=O)N[C@@H](Cc1ccc(O)cc1)C(=O)N[C@H](C(=O)N[C@@H](CC(C)C)C(=O)O)[C@@H](C)CC` [[^3H]13], the koff on NTS1R [2] (adherent CHO-hNTS1R cells, 23 °C, read-out: koff [min^–1] (converted)) is 0.000233 s⁻¹. Also, on NTS1R [2] (adherent CHO-hNTS1R cells, biphasic exponential fit), the “kobs(slow) [min^–1]” value is 0.011 ± 0.001 ^b min^–1. Moreover, the association rate constant (kon) on NTS1R [2] (adherent CHO-hNTS1R cells, calculated from koff, kobs(fast) and ligand concentration, read-out: kon(fast) [min^–1 nM^–1] (converted)) was 5.5e+06 M⁻¹ s⁻¹. In addition, the Kd on NTS1R [2] (adherent CHO-hNTS1R cells, koff/kon(fast), read-out: Kd(kin)) was found to be 0.41 ± 0.24 nM. The “kobs(fast) [min^–1]” value on NTS1R [2] (adherent CHO-hNTS1R cells, monophasic fit of initial association phase, 1.3 nM [^3H]13 or […] [^3H]18) was 0.57 ± 0.08 ^a min^–1. In addition, at NTS1R [2] (adherent cells), the “Proportion of fast kinetic component (association)” value is given as 19% and the “Proportion of slow kinetic component (association)” value was found to be 81%.

The values above are taken from paper PMC11440508, “Dually Labeled Neurotensin NTS1R Ligands for Probing Radiochemical and Fluorescence-Based Binding Assays” (Journal of Medicinal Chemistry, 2024).
